Assay results reported in patent US20250282714A1, “COMPOSITIONS FOR AND METHODS OF MODULATING RNA STABILITY” (Duke University, priority 2022, published 2025).
“And” between values parts separate entries of the source, which are not always exact repeats. Equal values may be shown once. “Also recorded” adds a separate entry of the source.

Experiments:
[1] = system: MALAT1 triple helix; test: Differential scanning fluorimetry (DSF), thermal stability; type: binding, human; settings: for effect on MALAT1 triplex thermal stability (in words): DSF
Procedure: Differential scanning fluorimetry experiments were performed as previously reported. (Donlic A, et al. (2020) Nucleic Acids Res. 48(14):7653-7664). All experiments were performed in white 96 well plates in a LightCycler® 96 (Roche). In a typical experiment, 4 μM of RNA was annealed in the same buffer used for indicator displacement assays (20 mM HEPES-KOH, 52.6 mM KCl, 0.1 mM MgCl2, pH=7.4) by heating at 95° C. for 3 minutes, snap-cooling on ice for 10 minutes, and leaving the solution at room temperature for 1 hr. Then, 42 μL of this solution was aliquoted to wells and 5 μM of ligand was added (2.5 μL of water, 2.0 μL of DMSO, 0.5 μL of 500 μM small molecule stock). The mixture was left to incubate at room temperature for 5 minutes, after which 3 μL of a 20 μM Quant-iT™ RiboGreen™ (ThermoFisher Scientific) dye stock solution in appropriate buffer was added to each well. The 96 well plate was then sealed with an optically clear foil and centrifuged for 1 minute at 4000 rpm prior to being placed in the instrument. The light cycler program was created by selecting the melting curve method; fluorescence intensity was monitored using the SYBR Green I/HRM dye filter combination (465-510 nm) from 37-98° C. at a ramp rate of 0.01° C./second with 150 acquisitions per° C. Melting profiles were obtained by Tm analysis in the LightCycler® 96 software (SW 1.1).
The MALAT1 triple helix is known to confer stability to the full-length transcript and protect it from RNase-mediated degradation, ultimately resulting in transcript accumulation and aggregation in nuclear speckles. (Brown J A, (2020) WIREs RNA. 11(6):e1598; Wilusz J E, et al. (2012) Genes Dev. 26(21):2392-2407; Brown J A, et al. (2014) Nat Struct Mol Biol. 21(7):633-640; Tycowski K T, et al. (2016) Cell Rep. 15(6):1266-1276). To better understand how the diminazene focused library affects the MALAT1 triplex stability, the entire library was evaluated via differential scanning fluorimetry (DSF) (FIG. 5A). This method allows for rapid assessment of small molecule effects on nucleic acid thermal stability (Silvers R, et al. (2015) Chembiochem. 16(7):1109-1114) in a 96-well plate format, substantially reducing the time and cost associated with traditional UV-melting experiments.
The bi-phasic melting profile distinctive of triple helices is attributed to an initial melting of the Hoogsteen triple base pairs followed by dissociation of Watson-Crick-Franklin base pairs (FIG. 16A-FIG. 16E). (Pilch D S, et al. (1995) Biochemistry. 34(49):16107-16124). At an equimolar ratio of RNA:small molecule, a range of thermal stabilization of the first (Tm1) was observed, but not the second (Tm2) melting peak (FIG. 5A, FIG. 13A-FIG. 13Z). At increasing small molecule concentration, a dose-dependent increase in ΔTm1 but not in ΔTm2 was observed, indicating small molecule interactions in the triplex region and not in the upper stem region (FIG. 15).

[2] = system: MALAT1 triple helix; test: RiboGreen indicator displacement assay (IDA); type: binding, human; settings: for affinity for the MALAT1 triple helix (in words): RiboGreen IDA
Procedure: The protocol was adapted from a previously reported procedure. (Donlic A, et al. (2020) Nucleic Acids Res. 48(14):7653-7664). A serial dilution of the MALAT1 triple helix RNA was performed in HEPES buffer (20 mM HEPES-KOH, 52.6 mM KCl, 0.1 mM MgCl2, pH=7.4) in a 96 well plate in triplicate. […] of each dilution were transferred to a 384 well plate followed by […] of a 500 nM solution of RiboGreen dye in the same buffer (Invitrogen™). The plates were excited at 487 nm (8 nm slit) and emission was recorded at 530 nm (8 nm slit, focal height 11.3 mm) using a CLARIOstar plate reader (BMG labtech). The affinity of the dye for the RNA construct was determined by fitting the raw fluorescence in GraphPad Prism version 8.3.1 for Macintosh (GraphPad Software, La Jolla California USA, (www.graphpad.com)) by fitting to the Log[Agonist] vs. response—variable slope model that using Equation (1) below.
where Y is normalized % change in fluorescence intensity, X is RNA concentration, Bottom is lowest fluorescence % change and Top is highest fluorescence % change. Affinity of the dye for the RNA construct was used as the ideal RNA concentration (174 nM) for small molecule titrations.
A serial dilution of small molecule (0, 0.5 μM, 1.0 μM, 2.5 μM, 5 μM, 7.5 μM, 10.0 μM, 12.5 μM, 25 μM, 50 µM, 75 μM, 100 μM, 125 μM, 150 μM, 250 μM, 500 µM) was performed in HEPES buffer (20 mM HEPES-KOH, 52.6 mM KCl, 0.1 mM MgCl2, pH=7.4) in a 96 well plate in triplicate. Then, 8 μL of each dilution were transferred to a 384 well plate, followed by 8 μL of a 174 nM solution of MALAT1 RNA and […] of RiboGreen™ (Invitrogen™). The RNA was previously annealed by heating to 95° C. for 5 minutes and cooling to 0° C. on ice for 30 minutes. The 384 well plates were shaken for 5 minutes, centrifuged at 4000 rpm for 1 minute, and incubated in the dark for 20 minutes. The plates were excited at 487 nm (8 nm slit) and emission was read at 525 nm (8 nm slit, focal height […]) using a CLARIOstar plate reader (BMG Labtech). Percent fluorescence indicator displacement (% FID) was calculated by subtracting and, subsequently, dividing by the blank wells with RNA-dye complex and no small molecule as shown in Equation (2).
Where Fo is the fluorescence of the blank well with RNA+dye and no small molecule and F is the fluorescence of the well with all three components (RNA+dye+small molecule).
Each technical triplicate was averaged, and the resulting FID values were averaged between three independent experiments. The binding curve and Log (CD50) value was obtained by using a non-linear fit curve (Log[Agonist] vs. response) with variable slope at four parameters (GraphPad Prism Software version for Macintosh 8.3.1, La Jolla, California, USA (www.graphpadprism.com)) as shown in Equation 1. Reported values are averages of three independent experiments=standard deviation.
Given the structural differences between secondary and tertiary structures, where more continuous and complex base-pairing occurs, the design and optimization of an RNA triple helix IDA amenable to HTS was the first focused on. The utility of RiboGreen™ dye was confirmed as an indicator. The RiboGreen™ structure is proprietary, and stoichiometry is thus unconfirmed. Upon assay optimization, the 21-member library was screened using a 16-point titration in three independent replicates (FIG. 2A, FIG. 12A-FIG. 12U).

[3] = system: MALAT1 triple helix; test: RNase A enzymatic degradation assay; type: biochemical, human; settings: for stabilizing / destabilizing compound (as listed 'in an aspect'): stabilizing = less, destabilizing = more degradation in an enzymatic assay than control
Procedure: The procedure was adapted from a published protocol for exonucleolytic enzymatic degradation assay. (Donlic A, et al. (2020) Nucleic Acids Res. 48(14):7653-7664). The MALAT1 destabilizing small molecules published by Le Grice (Abulwerdi F A, et al. (2019) ACS Chem Biol. 14(2):223-235) and co-workers SM5 and SM16 were purchased from ChemBridge. For a typical 70 μL reaction, […] of MALAT1 triple helix RNA was annealed in the same buffer used for IDA and DSF experiments (20 mM HEPES-KOH, 52 mM KCl, 0.1 mM MgCl2, pH=7.4) by heating at 95° C. for 3 minutes, snap-cooling on ice for 10 minutes, and leaving the solution at room temperature for 1 hr.
RNase A enzyme (ThermoFisher) was diluted to 1.46 nM and incubated with 1 M NaCl for 30-35 minutes to achieve ssRNA selectivity as reported. (Struhl K, et al. (1989) Current Protocols in Molecular Biology. 8(1):3.13.1-3.13.3). Next, the RNA was mixed with 0.2 μM of a GC-rich DNA duplex, […] of small molecule/DMSO and incubated at room temperature for 20 minutes. Following the incubation, […] of RNase A was added, and the reaction was incubated at 37° C. for 1 hour in a thermal cycler with a heated lid (Eppendorf). 4 μL timepoint aliquots were taken at 0, 5, 10, 30, and 60 minutes, 4 μL of 2×RNA loading dye was added to each aliquot (ThermoFischer Scientific), and samples were stored at −80° C. prior to gel analysis. Reactions were analyzed on pre-cast 15% PAGE-Urea gels (Invitrogen) in 1×TBE buffer. Aliquots were thawed from −80° C. storage and heated to 95° C. for 15 minutes prior to gel loading and […] were loaded in each well. Gels were run for 45 minutes at 180 V, stained with Diamond™ Nucleic Acid dye (Promega), and visualized on an iBright 500 (ThermoFisher). DMSO controls were ran with every set of 4 small molecules to ensure consistency of enzyme activity and RNA integrity. Gel band intensity of the MALAT1 triple helix and DNA loading control were quantified using ImageJ software. (Rueden C T, et al. (2017) BMC Bioinformatics. 18(1):529).
To quantify time-dependent endonucleolytic degradation for each sample, the intensity was normalized using Equation (3), and fold-difference was calculated as listed in Equation (4) as previously reported. (Donlic A, et al. (2020) Nucleic Acids Res. 48(14):7653-7664).
where y is normalized RNA area for a specific time point and the sample (tx), TH (triple helix). Area is the raw band intensity for the RNA in the lane corresponding to time point x for that sample, LC (loading control). Area (t0) is the raw band intensity for the DNA in the lane corresponding to the 0 minute time point for the sample, and LC Area (tx) is the raw band intensity for the DNA in the lane corresponding to time point x for that sample.
where y is fold-difference of the exonucleolytic degradation for the specific sample, with normalized areas for its specific time point x and time point 0 calculated as described in Equation (3). Percent RNA degraded was calculated for every time point using Equation (5).
% RNA degraded=(Normalized area (t0)−Normalized area (tx))*100 (Equation 5)
Experimental results shown in FIG. 6C are plotted as three independent replicates and standard deviation between replicates as error bars. Relative fold change between treated condition and DMSO was calculated from Equation (6).
The library was screened using a more biologically relevant in vitro enzymatic degradation assay. Previous work evaluated the effect on triplex degradation of various ionic buffer conditions (Ageeli A A, et al. (2018) Nucleic Acids Res. 47(3):1468-1481) and a sub-set of DPF small molecules (Donlic A, et al. (2020) Nucleic Acids Res. 48(14):7653-7664) using E. coli RNase R exonuclease as it degrades from 3′ to 5′, reporting on the availability of the poly(A) tail normally sequestered in the triplex construct. […]

[4] = 5-minute time point, relative to DMSO control

Compound	effect on MALAT1 triplex thermal stability (in words) [1]	affinity for the MALAT1 triple helix (in words) [2]	stabilizer / destabilizer classification by RNase A degradation [3, 4]	also measured
N=C(NCCc1cccnc1)c1cccc(/N=N/Nc2cccc(C(=N)NCCc3cccnc3)c2)c1 [DMZ-M3]	negligible thermal stabilization	moderate affinity	–	–
N=C(NCc1ccccc1)c1cccc(/N=N/Nc2cccc(C(=N)NCc3ccccc3)c2)c1 [DMZ-M4]	increases in thermal stability; also recorded: mediocre	mediocre affinity	destabilizers	increase of the amount of MALAT1 degraded at 5 minutes [3, 4]: 2 fold and > 2 fold
N=C(NCc1ccco1)c1cccc(/N=N/Nc2cccc(C(=N)NCc3ccco3)c2)c1 [DMZ-M15]	negligible thermal stabilization	moderate affinity	–	–
CN(C)c1ccc(CN2CCC(CCNC(=N)c3ccc(/N=N/N(C)c4ccc(C(=N)NCCC5CCN(Cc6ccc(N(C)C)cc6)CC5)cc4)cc3)CC2)cc1 [DMZ-NMe-P38]	–	–	–	stabilizing / destabilizing compound (as listed 'in an aspect') [3]: destabilizing
CN(/N=N/c1ccc(C(=N)NCCC2CCN(Cc3ccccc3)CC2)nc1)c1ccc(C(=N)NCCC2CCN(CC3C=CC=CC3)CC2)nc1 (stereo not shown) [DMZ-NMe-mPy-P1]	–	–	–	stabilizing / destabilizing compound (as listed 'in an aspect') [3]: destabilizing
N=C(NCc1ccccc1)c1ccccc1/N=N/Nc1ccccc1C(=N)NCc1ccccc1 [DMZ-O4]	–	no affinity	–	–
N=C(NCc1ccc(Cl)cc1)c1ccccc1/N=N/Nc1ccccc1C(=N)NCc1ccc(Cl)cc1 [DMZ-O5]	–	–	much stronger destabilizing effect	stabilizing / destabilizing compound (as listed 'in an aspect') [3]: stabilizing; also recorded: destabilizing
N=C(N)c1ccc(/N=N/Nc2ccc(C(=N)N)cc2)cc1 [DMZ-P0, diminazene, reference compound]	increases in thermal stability	–	destabilizers	–
CN(C)CCCNC(=N)c1ccc(/N=N/Nc2ccc(C(=N)NCCCN(C)C)cc2)cc1 [DMZ-P1]	increases in thermal stability	–	destabilizers	effect on Tm1 (ΔTm1, first melting peak) ([1]; equimolar RNA:small molecule, versus DMSO vehicle): approximately 6.1 °C; strength class of stabilizer / destabilizer (change in degradation) [3, 4]: weak destabilizer (weak destabilizer (<50% increase in degradation))
N=C(NCc1ccc(Cl)cc1)c1ccc(/N=N/Nc2ccc(C(=N)NCc3ccc(Cl)cc3)cc2)cc1 [DMZ-P5]	–	–	–	fold higher affinity, para scaffold versus ortho scaffold ([2]; subunit R-5: DMZ-P5 versus DMZ-O5): 13 fold
CCCCNC(=N)c1ccc(/N=N/Nc2ccc(C(=N)NCCCC)cc2)cc1 [DMZ-P17]	negligible thermal stabilization	moderate affinity	–	–
